Values joined by “and” are separate entries in the source; they are usually repeats but may differ in a detail not shown here. Equal entries are not always repeated.

With `CC(C)CC1=C/C(=C/c2ccc(-c3ccccc3)o2)C(=O)O1`, the melting point amounted to 76 °C.

Turning to `Nc1ccc(N=Nc2ccccc2)c(N)n1` [phenazopyridine], the melting point turned out to be 139 °C.

In the case of `CCCC(C)=O` [2-pentanone], the melting point is -78 °C.

For `Clc1ccc(Cl)nn1` [3,6-dichloropyridazine], the melting point was determined as 68 °C.

The molecule `Nc1c(Br)cccc1Br` [2,6-dibromoaniline] registered a melting point of 80 °C.

With `O=C1c2ccccc2C(=O)c2c(Cl)cccc21` [1-chloroanthraquinone], the melting point worked out at 160 °C.

Molecule `c1ccc(COCc2ccccc2)cc1` [dibenzyl ether] came in with a melting point of 4 °C.

On to `CC(C)(C)c1cccc(O)c1` [3-tert-butylphenol], for which the melting point is 45 °C.

For `CCCCCCCCCCCC` [dodecane], the melting point was -10 °C.

`CCOC(O)C(Cl)(Cl)Cl` (stereo unspecified) [2,2,2-trichloro-1-ethoxyethanol] displayed a melting point of 50 °C.

With `COC(=O)c1ccc2nccnc2c1` [methyl quinoxaline-6-carboxylate], the melting point is 98 °C.

The molecule `Nc1ccc(C(=O)O)cc1` [4-Aminobenzoic acid] registered a melting point of 189 °C.

In turn, `CCCCCCCCCC#N` [nonyl_cyanide] showed a melting point of -15 °C.

Consider `Cc1ccc(-c2ccc(/C=C/C(=O)c3ccco3)o2)cc1`, for which the melting point is 111 °C.

In the case of `COc1cc(C#N)ccc1O` [4-hydroxy-3-methoxybenzonitrile], the melting point was 87 °C.

In the case of `CCCCCCCCCCCCCCc1ccccc1` [Tetradecylbenzene], the melting point was 9 °C.

`CC1(C)C2CC[C@]1(C)C(=O)C2` [(1S)-1,7,7-Trimethylbicyclo[2.2.1]heptan-2-one] yielded a melting point of 179 °C.

`O=[N+]([O-])c1ccccc1O` [nitrophenol] registered a melting point of 45 °C.

Turning to `CCC(C)C1(CC)C(=O)NC(=O)NC1=O` (stereo unspecified) [butabarbital], the melting point came out at 166 °C.

For `CC(C(=O)O)c1ccc(-c2ccccc2)c(F)c1` (stereo unspecified) [flurbiprofen], the melting point was 110 °C.

On to `CCCC(=O)OCSc1ncnc2c1ncn2COC(=O)CCC` [S6,9-Bis(butanoyloxymethyl)-6-mercaptopurine], for which the melting point stood at 69 °C.

In the case of `CCCCC(=O)OCC(=O)[C@]1(O)Cc2c(O)c3c(c(O)c2[C@@H](OC2CC(NC(=O)C(F)(F)F)C(O)C(C)O2)C1)C(=O)c1c(OC)cccc1C3=O` (stereo partly specified) [Valrubicin], the melting point amounted to 116 °C.

Regarding `C[C@]12CC[C@@H]3c4ccc(O)cc4CC[C@H]3[C@@H]1CC[C@@H]2O` [estradiol], the melting point was 176 °C and 178 °C.

With `CN(C)NC(=O)CCC(=O)O` [4-(2,2-Dimethylhydrazino)-4-oxobutanoic acid], the melting point turned out to be 154 °C.

Turning to `[2H]C([2H])([2H])C([2H])([2H])C([2H])([2H])C([2H])([2H])C([2H])([2H])C([2H])([2H])C([2H])([2H])C([2H])([2H])C([2H])([2H])[2H]` [(~2~H_20_)Nonane], the melting point is -53 °C.

Regarding `Cc1cc(N)ccc1F` [4-fluoro-3-methylaniline], the melting point was found to be 34 °C.

Molecule `Cc1ccc(Br)cc1` [1-Bromo-4-methylbenzene] displayed a melting point of 28.5 °C.

`O=C(c1ccccc1)c1ccc(O)cc1O` [2,4-dihydroxybenzophenone] had a melting point of 146 °C.

Consider `Cc1ccco1` [2-methylfuran], for which the melting point was -89 °C.

As to `CCCCCCCl` [1-Chlorohexane], the melting point is -94 °C.

Consider `CC(C(=O)O)c1ccc(-c2ccccc2)c(F)c1` (stereo unspecified) [Flurbiprofen], for which the melting point stood at 110 °C.

In turn, `CCCCNC(=O)NCCCC` [N,N'-di-n-butylurea] returned a melting point of 72 °C.

Molecule `c1ccc(OCC2CO2)cc1` (stereo unspecified) [glycidyl phenyl ether] had a melting point of 4 °C.

Molecule `CC(=O)OCCCCOC(C)=O` [1,4-diacetoxybutane] returned a melting point of 13 °C.

With `CN(CCO)CCO` [N-methyldiethanolamine], the melting point is -21 °C.

`OB(O)c1ccc(F)cc1` [4-fluorobenzeneboronic acid] registered a melting point of 263 °C.

Take `Cn1nc(CC#N)c2c(N)ncnc21`: the melting point stood at 137 °C.

As for `Oc1c(Cl)c(Cl)c(Cl)c(Cl)c1Cl` [Pentachlorophenol], the melting point worked out at 190 °C.

For the molecule `CCCNCCC` [N-Propylpropan-1-amine], the melting point was -40 °C.

The molecule `CC(=O)NC(CCC(N)=O)C(=O)O` (stereo unspecified) [aceglutamide] registered a melting point of 197 °C.

The molecule `Nc1cccc2c(=O)[nH][nH]c(=O)c12` [5-Amino-2,3-dihydrophthalazine-1,4-dione] displayed a melting point of 319 °C.

In the case of `CC(=O)CC(C)C` [4-Methylpentan-2-one], the melting point was -80 °C.

Turning to `CC(=O)OCCC(C)C` [3-Methylbutyl acetate], the melting point is -100 °C.

`NNC(=O)c1ccncc1` [isonicotinic acid hydrazide] returned a melting point of 172 °C.

In turn, `CCOC(=O)c1cc(C)n(-c2ccc(C(F)(F)F)cc2)c1C` [OSM-S-32] returned a melting point of 67.5 °C.

`CC(C)(C)OC(=O)N1CCC[C@H]1C(=O)O` [N-boc-L-proline] came in with a melting point of 134 °C.

`Nc1ccc(Cl)cc1` [4-Chloroaniline]: the melting point stood at 72.5 °C.

Consider `Cc1cc(Cl)nc(Cl)c1C#N` [2,6-dichloro-3-cyano-4-methylpyridine], for which the melting point is 110 °C.

Molecule `Clc1cc(N2CCCC2)ncn1` [4-chloro-6-(1-pyrrolidinyl)pyrimidine] came in with a melting point of 97 °C.

`CNC1=CC2=NC(OC)=CC2=CC1` [2-methoxy-N-methyl-1H-indol-6-amine] returned a melting point of 165 °C.

Regarding `COc1cccc2oc(-c3ccccc3)c(O)c(=O)c12` [3-hydroxy-5-methoxyflavone], the melting point worked out at 175 °C.

Turning to `CCCCCCCCN` [1-aminooctane], the melting point stood at 0 °C.

With `COCOC` [Dimethoxymethane], the melting point was -105 °C.

Take `CC(C)C` [Isobutane]: the melting point was -160 °C.

In turn, `CC(C)C(=O)O` [2-methylpropanoic_acid] returned a melting point of -46 °C.

As for `Cc1cc(C)c(CC#N)c(C)c1` [mesitylacetonitrile], the melting point turned out to be 79 °C.

For the molecule `CCCCCCCCCCNCCCCCCCCCC` [N-Decyldecan-1-amine], the melting point was 43 °C.

In the case of `C/C=C/c1ccc(O)c(OC)c1` [isoeugenol, cis trans], the melting point is -10 °C.

In turn, `O=C(O)c1ccc(C(F)(F)F)cc1` [4-(trifluoromethyl)benzoic acid] gave a melting point of 221 °C.

In the case of `COc1ccc(C(C)(C)C)cc1B(O)O` [5-tert-butyl-2-methoxybenzeneboronic acid], the melting point was 105 °C.

`Fc1cc(I)ccc1Br` [1-bromo-2-fluoro-4-iodobenzene] gave a melting point of 36 °C.

`CCC#N` [Propiononitrile] returned a melting point of -92 °C.

In the case of `N#Cc1c(O)cccc1F` [2-fluoro-6-hydroxybenzonitrile], the melting point is 156 °C.

Molecule `O=C(O)c1cc(Br)cc(Br)c1` [3,5-dibromobenzoic acid] came in with a melting point of 220 °C.

Turning to `CC(C)(Oc1ccc(Cl)cc1)C(=O)O` [2-(4-chlorophenoxy)isobutyric acid], the melting point is 120 °C.

In turn, `O=C(c1ccco1)C(O)c1ccco1` (stereo unspecified) [2,2'-furoin] showed a melting point of 138 °C.

Molecule `CC(=O)C(=O)O` [Pyruvic acid] gave a melting point of 11.8 °C.

As for `Nc1ccccc1CO` [2-aminobenzyl alcohol], the melting point turned out to be 83 °C.

In the case of `CC(C)(C)c1ccc(C2CCC3(CC2)Cc2ccc(C(=O)Nc4ccccc4OCCCC(=O)O)cc2C3)cc1` (stereo unspecified), the melting point came to 147 °C.

For the molecule `COC(=O)c1ccc(/C=C\c2ccc(C(=O)OC)cc2)cc1` [dimethyl cis-stilbene-4,4'-dicarboxylate], the melting point was determined as 113 °C.

In turn, `Fc1cccc(P(c2cccc(F)c2)c2cccc(F)c2)c1` [tris(3-fluorophenyl)phosphine] had a melting point of 62 °C.

`OB(O)c1ccc(Cl)s1` [5-chlorothiophene-2-boronic acid] gave a melting point of 138 °C.

In turn, `O=C(O)c1cccnc1Oc1ccc(F)cc1` [2-(4-fluorophenoxy)nicotinic acid] had a melting point of 184 °C.

`CC(C)(S)[C@@H](N)C(=O)O` [penicillamine] displayed a melting point of 204 °C.

`O=C1C(=O)c2ccccc2-c2ccccc21` [9,10-phenanthrenequinone]: the melting point came out at 210 °C.

`O=C(NC1CCC(O)CC1)OCc1ccccc1` (stereo unspecified) [4-(benzyloxycarbonylamino)cyclohexanol]: the melting point worked out at 163 °C.

Molecule `OC1CCCCC1` [cyclohexanol] displayed a melting point of 21 °C.

The molecule `ClC(Cl)Cl` [chloroform] came in with a melting point of -63 °C.

`CCC1=C(/C=N/Nc2ccc([N+](=O)[O-])cc2[N+](=O)[O-])CCCC1`: the melting point amounted to 194 °C.

`COC(=O)c1ccccc1O` [methyl salicylate] came in with a melting point of -9 °C.

Regarding `Nc1cccc(C(=O)c2cccc(N)c2)c1` [3,3'-diaminobenzophenone], the melting point is 150 °C.

Molecule `O=C(Oc1cccc(OC(=O)c2ccccc2)c1)c1ccccc1` [1,3-dibenzoyloxybenzene] registered a melting point of 118 °C.

For the molecule `CCC#N` [propionitrile], the melting point is -93 °C and -92 °C.

As to `Clc1ccccc1C(c1ccccc1)(c1ccccc1)n1ccnc1` [clotrimazole], the melting point amounted to 147 °C.

As for `[2H]C1([2H])OC([2H])([2H])C([2H])([2H])C1([2H])[2H]` [(~2~H_8_)Tetrahydrofuran], the melting point is -106 °C.

Consider `Clc1c(Cl)c(Cl)c(Cl)c(Cl)c1Cl` [hexachlorobenzene], for which the melting point was 230 °C and 229 °C.

`CN(C)c1ccc(/C=C/C=O)cc1` [4-dimethylamino cinnamaldehyde] returned a melting point of 136 °C.

Turning to `c1ccc2c(c1)Cc1ccccc1O2` [xanthene], the melting point is 100 °C (2×) and 102 °C.

`O=C(O)/C=C/c1ccc(F)c(F)c1` [3,4-difluorocinnamic acid]: the melting point turned out to be 195 °C.

Molecule `COc1cccc(-c2nnn[nH]2)c1` [5-(3-methoxyphenyl)-1h-tetrazole] displayed a melting point of 157 °C.

`OC[C@@H](O)[C@H](O)[C@@H](O)CO` [xylitol] showed a melting point of 94 °C.

One may read the melting point as the temperature of the solid-liquid transition.

The values are drawn from the Bradley open melting point set (2014).
